Results as given in patent EP4613730A1, “LIPIDIC ALKYNYLCARBINOLS WITH ANTI-BACTERIAL AND ANTI-TUBERCULOSIS ACTIVITY” (priority 2024, dated 2025).
Converted amounts (≈) assume the structure as drawn. Where two headings read alike, the source gives them in different places.

What was measured:
Format in all cases: cell-based
M. abscessus = experiment: Antibacterial activity MIC, M. abscessus; conditions: Mycobacteroides abscessus
[1] = Cytotoxicity evaluation on Vero cell line (MTT); conditions: Vero cells, read-out: Anti-VERO CC50
Protocol: (§1) The biological activity of the compounds of the present invention were evaluated. The activity against mycobacteria (Mtb) was assessed by minimum inhibitory concentration values (MIC, µM) determination. The selectivity index (SI) is defined as: SI = (CC50)/(MIC) [formula] wherein CC50 refers to the half maximal cytotoxic concentration of compounds towards particular eukaryotic cells, either for HCT116 cells and/or VERO cells; MIC refers to the minimum inhibitory concentration of the compounds towards mycobacteria.
Cytotoxicity evaluation of the tested molecules by MTT assay was performed on the Vero cell line. Briefly, cells (5.10^4 cells/mL) in 100 µL of complete medium [MEM supplemented with 10% fetal calf serum (FCS), 2 mM L-glutamine and antibiotics (100U/mL penicillin and 100 µg/mL streptomycin)] were seeded into each well of 96-well plates and incubated at 37 °C in a humidified 5% CO2 with 95% air atmosphere. After a 24 h incubation, 100 µL of medium with various product concentrations and appropriate controls were added and the plates were incubated for 72 h at 37 °C. Each plate-well was then microscope-examined for detecting possible precipitate formation before the medium was aspirated from the wells. 100 µL of MTT solution (0.5 mg/mL in complete MEM) were then added to each well. Cells were incubated for 1 h at 37 °C and the MTT solution was then removed, and DMSO (100 µL/well) was added to dissolve the resulting formazan crystals. Plates were shaken vigorously (300 rpm) for 5 min. The absorbance was measured at 570 nm with a microplate spectrophotometer (BIOTEK Eon). DMSO was used as blank and SDS as positive control. CC50 were calculated by non-linear regression analysis processed on dose-response curves, using TableCurve 2D V5 software.

[2] = test system: Mycobacterium tuberculosis strain H37Rv; experiment: Mycobacterial growth inhibition assay (colorimetric MTT micro assay, MIC)
[3] = Cytotoxicity evaluation on HCT-116 cell line (SRB); conditions: human, HCT-116 cells, 72 hours treatment, read-out: Anti-HCT116 CC50
Protocol: as §1
Human HCT-116 colon cancer cells were seeded in 96-well plates (2500 cells/well) 24 hours before being treated for 72 hours with the tested compounds. Cells were grown and treated in DMEM 10% FBS. For each compound, 11 concentrations, corresponding to twofold serial dilutions from the maximum concentration, were evaluated, with each concentration tested in duplicate. DMSO was set at 0.5% final concentration in each well, including in the untreated conditions. At the end of the treatment, cells were fixed 1 hour at 4°C by addition of cold 10 % trichloroacetic acid to a final 3.33 % concentration, then washed 4 times with water. The plates were dried and the cells stained for 30 minutes with 0.057 % (wt/vol) Sulforhodamine B (SRB) in 1% acetic acid, then washed 4 times with 1% acetic acid and dried. The dye was resuspended by a 1 h 30 incubation in 200 µL of 10 mM Tris-base and the absorbance at 490 nm measured with a plate reader (µquant, Bio-tek). For normalization, the background value was subtracted to each value, the duplicates averaged and the untreated condition set to 100% cell viability. CC50 were computed from at least three independent experiments using the GraphPad Prism software using a non-linear regression to a four-parameter logistic curve (log[inhibitor] vs response; variable slope).

M. smegmatis = experiment: Antibacterial activity MIC, M. smegmatis; conditions: Mycolicibacterium smegmatis
M. kansasii = experiment: Antibacterial activity MIC, M. kansasii; conditions: Mycobacterium kansasii
E. coli = experiment: Antibacterial activity MIC, E. coli; conditions: Escherichia coli
C. glutamicum = experiment: Antibacterial activity MIC, C. glutamicum; conditions: Corynebacterium glutamicum
[4] = M. tuberculosis (Table 4), read-out: Antibacterial activity MIC M. tuberculosis
[5] = M. tuberculosis H37Rv, 7H9 broth, 6 days incubation then MTT 24 h, read-out: Anti-Mtb MIC
[6] = read-out: Antibacterial activity MIC M. tuberculosis

| Structure (SMILES) | CC50 at 72 h ([1]; African green monkey) [µM] | MIC [2, 5] [µM] | CC50 at 72 h ([3]; HCT-116 colon cancer cells) [µM] | also measured |
| --- | --- | --- | --- | --- |
| CCCCCCCCCCCC(O)C#CCO (racemic) [Compound 1, Pentadec-2-yne-1,4-diol] | 89 | 1.25 (≈ 0.3 µg/mL) | 60 | MIC (M. abscessus): 2.5 µM (≈ 0.601 µg/mL); MIC [2, 4]: 1.25 µM (≈ 0.3 µg/mL) |
| CCCCCCCCCCC[C@@H](O)C#CCO [(R)-1, (R)-Pentadec-2-yne-1,4-diol] | – | 1.25 (≈ 0.3 µg/mL) | – | – |
| C=C=C[C@@H](O)C#CCCCCCCCCCCCC [(R)-19] | – | – | – | MIC (M. smegmatis): 10 µM (≈ 2.62 µg/mL); MIC [2, 6]: 2.5 µM (≈ 0.656 µg/mL); MIC (M. kansasii): 5 µM (≈ 1.31 µg/mL); MIC (E. coli): > 10 µM; MIC (C. glutamicum): > 10 µM |
| CCCCCCCCCCC[C@@H](O)C#C[C@H](O)CC [(R,R)-6, (3R,6R)-heptadec-4-yne-3,6-diol] | – | 2.5 (≈ 0.671 µg/mL) | – | – |
| CCCCCCCCCCC[C@H](O)C#C[C@H](O)CC [(R,S)-6, (3R,6S)-heptadec-4-yne-3,6-diol] | – | 2.5 (≈ 0.671 µg/mL) | – | – |
| CCCCCCCCCCC[C@H](O)C#CCO [(S)-1, (S)-Pentadec-2-yne-1,4-diol] | – | 1.25 (≈ 0.3 µg/mL) | – | – |
| C=C=C[C@H](O)C#CCCCCCCCCCCCC [(S)-19] | – | – | – | MIC (M. smegmatis): 10 µM (≈ 2.62 µg/mL); MIC [2, 6]: 2.5 µM (≈ 0.656 µg/mL); MIC (M. kansasii): 2.5 µM (≈ 0.656 µg/mL); MIC (E. coli): > 10 µM; MIC (C. glutamicum): > 10 µM |
| C#C[C@H](O)C#CCCCCCCCCCCCC [(S)-20] | – | – | – | MIC (M. smegmatis): 2.5 µM (≈ 0.621 µg/mL); MIC [2, 6]: 1.2 µM (≈ 0.298 µg/mL); MIC (M. kansasii): 1.2 µM (≈ 0.298 µg/mL); MIC (E. coli): > 10 µM; MIC (C. glutamicum): 10 µM (≈ 2.48 µg/mL) |
| CCCCCCCCCCC[C@@H](O)C#C[C@@H](O)CC [(S,R)-6, (3S,6R)-heptadec-4-yne-3,6-diol] | – | 2.5 (≈ 0.671 µg/mL) | – | – |
| CCCCCCCCCCC[C@H](O)C#C[C@@H](O)CC [(S,S)-6, (3S,6S)-heptadec-4-yne-3,6-diol] | – | 2.5 (≈ 0.671 µg/mL) | – | – |
| CCCCCCCCCCCCC#CCO [Comparative example A, reference compound] | – | 5 (≈ 1.12 µg/mL) | – | MIC (M. abscessus): 20 µM (≈ 4.49 µg/mL); CC50 at 72 h ([1]; monkey): 187 µM; MIC [2, 4]: 5 µM (≈ 1.12 µg/mL); CC50 at 72 h [3]: 120 µM |
| C=CC(O)C#CC(O)CCCCCCCCCCC (centres unmarked) [Compound 2, Heptadec-1-en-4-yne-3,6-diol] | 7.6 | – | 2 | MIC ([2]; read-out: Anti-Mtb MIC): 1.25 µM (≈ 0.333 µg/mL) |
| C=C=CC(O)C#CC(O)CCCCCCCCCCC (centres unmarked) [Compound 3, Octadeca-1,2-dien-5-yne-4,7-diol] | 8 | – | 9 | MIC ([2]; read-out: Anti-Mtb MIC): 2.5 µM (≈ 0.696 µg/mL) |
| C#CC(O)C#CC(O)CCCCCCCCCCC (centres unmarked) [Compound 4, Heptadeca-1,4-diyne-3,6-diol] | 2.5 | – | 4 | MIC ([2]; read-out: Anti-Mtb MIC): 0.3 µM (≈ 0.0793 µg/mL) |
| CCCCCCCCCCCC(O)C#CC(O)c1ccccc1 (centres unmarked) [Compound 5, 1-Phenylpentadec-2-yne-1,4-diol] | 46.5 | 1.25 (≈ 0.396 µg/mL) | 50 | – |
| CCCCCCCCCCCC(O)C#CC(O)CC (centres unmarked) [Compound 6, Heptadec-4-yne-3,6-diol] | 43.2 | 2.5 (≈ 0.671 µg/mL) | 40 | MIC (M. abscessus): 10 µM (≈ 2.68 µg/mL); MIC [2, 4]: 2.5 µM (≈ 0.671 µg/mL) |
| CCCCCCCCCCCC(O)C#CC(O)C1CC1 (centres unmarked) [Compound 7, 1-Cyclopropylpentadec-2-yne-1,4-diol] | 43.9 | 0.3 (≈ 0.0841 µg/mL) | 50 | – |
| CCCCCCCCCCCC(O)C#CC(O)C(C)(C)C (centres unmarked) [Compound 8, 2,2-Dimethylheptadec-4-yne-3,6-diol] | – | 5 (≈ 1.48 µg/mL) | 20 | – |
| CCCCCCCCCCCC(O)C#CC(O)C(CC)CC (centres unmarked) [Compound 9, 3-Ethyloctadec-5-yne-4,7-diol] | – | 5 (≈ 1.55 µg/mL) | 20 | – |

| Structure (SMILES) | CC50 at 72 h ([1]; African green monkey) [µM] | MIC [2, 5] [µM] | CC50 at 72 h ([3]; HCT-116 colon cancer cells) [µM] | also measured |
| --- | --- | --- | --- | --- |
| CCCCCCCCCCCC(O)C#CC(O)C1CCCC1 (centres unmarked) [Compound 10, 1-Cyclopentylpentadec-2-yne-1,4-diol] | – | 5 (≈ 1.54 µg/mL) | 20 | – |
| CCCCCCCCCCCC(O)C#CC(O)C1CCCCC1 (centres unmarked) [Compound 11, 1-Cyclohexylpentadec-2-yne-1,4-diol] | – | 5 (≈ 1.61 µg/mL) | 50 | – |
| C=CC(O)C#CCC(O)CCCCCCCCCC (centres unmarked) [Compound 12, Heptadec-1-en-4-yne-3,7-diol] | 12.5 | – | 2 | MIC ([2]; read-out: Anti-Mtb MIC): 1.25 µM (≈ 0.333 µg/mL) |
| C=C=CC(O)C#CCC(O)CCCCCCCCCC (centres unmarked) [Compound 13, Octadeca-1,2-dien-5-yne-4,8-diol] | – | – | 12 | MIC ([2]; read-out: Anti-Mtb MIC): 0.6 µM (≈ 0.167 µg/mL) |
| C#CC(O)C#CCC(O)CCCCCCCCCC (centres unmarked) [Compound 14, Heptadeca-1,4-diyne-3,7-diol] | 174 | – | 2 | MIC ([2]; read-out: Anti-Mtb MIC): 0.6 µM (≈ 0.159 µg/mL) |
| CCCCCCCCCCC(O)CC#CC(O)c1ccccc1 (centres unmarked) [Compound 15, 1-Phenylpentadec-2-yne-1,5-diol] | 75 | 2.5 (≈ 0.791 µg/mL) | 41 | – |
| CCCCCCCCCCC(O)CC#CC(O)CC (centres unmarked) [Compound 16, Heptadec-4-yne-3,7-diol] | 75 | 5 (≈ 1.34 µg/mL) | 51 | – |
| CCCCCCCCCCC(O)CC#CC(O)C1CC1 (centres unmarked) [Compound 17, 1-Cyclopropylpentadec-2-yne-1,5-diol] | 44.5 | 0.6 (≈ 0.168 µg/mL) | 40 | – |
| C=CC(O)C#CCCCCCCCCCCCC (centres unmarked) [Compound 18, Heptadec-1-en-4-yn-3-ol] | 1 | – | 0.2 | MIC ([2]; read-out: Anti-Mtb MIC): 2.5 µM (≈ 0.626 µg/mL) |
| C=C=CC(O)C#CCCCCCCCCCCCC (centres unmarked) [Compound 19, Octadeca-1,2-dien-5-yn-4-ol] | – | 2.5 (≈ 0.656 µg/mL) | 2.7 | – |
| C#CC(O)C#CCCCCCCCCCCCC (centres unmarked) [Compound 20, Heptadeca-1,4-diyn-3-ol] | 0.8 | – | 0.1 | MIC ([2]; read-out: Anti-Mtb MIC): 1.2 µM (≈ 0.298 µg/mL) |
| CCCCCCCCCCCCC#CC(O)c1ccccc1 (centres unmarked) [Compound 21, 1-Phenylpentadec-2-yn-1-ol] | 58.7 | 1.2 (≈ 0.361 µg/mL) | 50 | – |
| CCCCCCCCCCCCC#CC(O)CC (centres unmarked) [Compound 22, Heptadec-4-yn-3-ol] | > 50 | – | 12 | MIC (M. abscessus): > 20 µM; MIC [2, 4]: 2.5 µM (≈ 0.631 µg/mL) |
| CCCCCCCCCCCCC#CC(O)C1CC1 (centres unmarked) [Compound 23, 1-Cyclopropylpentadec-2-yn-1-ol] | 158 | > 10 | 60 | – |
| CCCCCCCCCCCCC#CC(O)C(C)(C)C (centres unmarked) [Compound 24, 2,2-Dimethylheptadec-4-yn-3-ol] | – | > 10 | 60 | – |
| CCCCCCCCCCCCC#CC(O)C(CC)CC (centres unmarked) [Compound 25, 3-Ethyloctadec-5-yn-4-ol] | – | > 10 | 125 | – |
| CCCCCCCCCCCCC#CC(O)C1CCCC1 (centres unmarked) [Compound 26, 1-Cyclopentylpentadec-2-yn-1-ol] | – | > 10 | 100 | – |
| CCCCCCCCCCCCC#CC(O)C1CCCCC1 (centres unmarked) [Compound 27, 1-Cyclohexylpentadec-2-yn-1-ol] | – | 10 (≈ 3.07 µg/mL) | 60 | – |
| C=C=CC(O)C#CCCCCCCCCC (centres unmarked) [Compound 28] | – | – | – | MIC (M. smegmatis): > 10 µM; MIC [2, 6]: 5 µM (≈ 1.1 µg/mL); MIC (M. kansasii): 10 µM (≈ 2.2 µg/mL); MIC (E. coli): > 10 µM; MIC (C. glutamicum): > 10 µM |
